# Several values for one entry are separate records, joined by “and”; a condition that tells them apart may be missing. Equal values may be shown once.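 Growth conditions: 96-well plates. Treatment: test compound, 48 hours, 5 concentrations. Analysis: linear interpolation between bracketing concentrations; unreached endpoints set to highest concentration. GI50 is the concentration that inhibits growth by half. TGI: concentration producing complete growth inhibition.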
# Experiments:
# Assay in all cases: inhibition of tumour cell growth, NCI panel, 48 h
# ACHN renal = test system: ACHN renal
# KM20L2 colon = test system: KM20L2 colon
# SN12C renal = test system: SN12C renal
# LOX IMVI melanoma = test system: LOX IMVI melanoma
# LXFL 529 NSCLC = test system: LXFL 529 NSCLC
# SNB-75 CNS = test system: SNB-75 CNS
# M19-MEL melanoma = test system: M19-MEL melanoma
# MALME-3M melanoma = test system: MALME-3M melanoma
# MDA-MB-231 breast = test system: MDA-MB-231 breast
# BT-549 breast = test system: BT-549 breast
Compound,TGI (ACHN renal),TGI (KM20L2 colon),TGI (SN12C renal),TGI (LOX IMVI melanoma) [µM],TGI (LXFL 529 NSCLC) [µM],TGI (SNB-75 CNS),TGI (M19-MEL melanoma),TGI (MALME-3M melanoma) [µM],GI50 (ACHN renal),GI50 (KM20L2 colon) [µM],GI50 (SN12C renal),GI50 (LOX IMVI melanoma) [µM],GI50 (LXFL 529 NSCLC) [µM],GI50 (SNB-75 CNS),GI50 (M19-MEL melanoma) [µM],GI50 (MALME-3M melanoma) [µM],GI50 (MDA-MB-231 breast),TGI (MDA-MB-231 breast),GI50 (BT-549 breast) [µM],TGI (BT-549 breast)
CCC1(c2ccncc2)CCC(=O)NC1=O (stereo not given),> 100 µM,> 100 µM,> 100 µM,> 100,> 100,> 100 µM,> 100 µM,> 100,,,,,,,,,,,,
O=C(CN1C(=O)c2ccccc2C1=O)OC1C=CCCC1 (stereo not given),> 100 µM,> 100 µM,> 100 µM,,> 100,> 100 µM,> 100 µM,> 100,,,,,,,,,,,,
CCCCCCCCCCSS(=O)(=O)c1ccc(C)cc1,31 µM,33.3 µM,25.1 µM,15.7,27.6,5.22 µM,26.6 µM,31.3,,,,,,,,,,,,
Cc1ccc(S(=O)(=O)NC(C)C(=O)O)cc1 (stereo not given),> 100 µM,> 100 µM,> 100 µM,> 100,> 100,> 100 µM,> 100 µM,> 100,,,,,,,,,,,,
O=C(O)c1cc2c3c(c1)[C@H]1C=CC[C@H]1CN3CC1CC=CC21 (stereo not given in full),> 100 µM,> 100 µM,> 100 µM,> 100,> 100,> 100 µM,> 100 µM,> 100,,,,,,,,,,,,
C#Cc1cccc(N2C(=O)CC(=P(c3ccccc3)(c3ccccc3)c3ccccc3)C2=O)c1,> 100 µM,,> 100 µM,,> 100,> 100 µM,> 100 µM,> 100,,,,,,,,,,,,
CC[O+]=c1cccc2ssnc1-2,> 100 µM,> 100 µM,> 100 µM,> 100,> 100,72.5 µM,> 100 µM,> 100,,,,,,,,,,,,
CCCC(=O)C(CC)/C(CCC(=O)N(Cc1ccccc1)Cc1ccccc1)=N/NC(=O)C[N+](C)(C)C (stereo not given),> 100 µM,> 100 µM,> 100 µM,,> 100,> 100 µM,> 100 µM,> 100,,,,,,,,,,,,
C=CC1(C)/C(=N\O)C(C)(CC)C(=O)N1O (stereo not given),> 100 µM,,> 100 µM,> 100,> 100,> 100 µM,> 100 µM,> 100,,,,,,,,,,,,
CC(C)c1cccc2sc(NC(=O)C(=O)CC(=O)c3ccc(F)cc3)nc12,> 100 µM,> 100 µM,> 100 µM,> 100,> 100,> 100 µM,> 100 µM,> 100,,,,,,,,,,,,
C/C(=C\c1ccccc1)C(O)S(=O)(=O)O (stereo not given),> 100 µM,> 100 µM,> 100 µM,> 100,> 100,> 100 µM,> 100 µM,> 100,,,,,,,,,,,,
COc1cccc(C(=O)O)c1Cc1cccc2ccccc12,> 100 µM,> 100 µM,> 100 µM,> 100,> 100,> 100 µM,> 100 µM,> 100,,,,,,,,,,,,
COc1cc(C(C)c2cc3c(cc2OCCOCCOc2cc4c(cc2C(C)c2cc(OC)c(OC)c(OC)c2)OCO4)OCO3)cc(OC)c1OC (stereo not given),> 100 µM,> 100 µM,> 100 µM,> 100,> 100,> 10 µM and 74.8 µM,> 100 µM,> 100,> 100 µM,> 100,> 100 µM,> 100,> 100,> 10 µM,> 100,> 100,,,,
[O-]c1c(-c2ccccc2)[se]c(-c2ccccc2)[n+]1-c1ccccc1,,,17.9 µM,30.5,27.8,22 µM,21.3 µM,29.3,,,,,,,,,,,,
O=C(O/N=C1/CCC/C1=C\c1ccccc1)c1ccc(Cl)cc1,> 100 µM,> 100 µM,> 100 µM,> 100,> 100,78 µM,> 100 µM,> 100,,,,,,,,,,,,
CP(=O)(CCSc1ccccc1)c1ccccc1 (stereo not given),> 100 µM,> 100 µM,> 100 µM,> 100,> 100,> 100 µM,> 100 µM,> 100,,,,,,,,,,,,
CCN(CC)CCNc1ccc(CO)c2sc3ccccc3c(=O)c12,7.94 µM and 24.5 µM and 15.9 µM,18.4 µM and 22.6 µM,20 µM [middle of 4 runs],,31.6,17.7 µM and 29.1 µM and 9.2 µM,26.5 µM and 31.6 µM,,2.35 µM and 6.73 µM and 2.58 µM,,6.55 µM [middle of 4 runs],,,4.27 µM and 14.4 µM and 2.33 µM,,,4.26 µM and 4.92 µM,21.7 µM and 20.6 µM,6.99,21.9 µM and 26.9 µM
CC(=O)[CH-]C(=O)c1ccccc1.CC(=O)[CH-]C(=O)c1ccccc1.[O-]c1ccc(O)cc1.[O-]c1ccc(O)cc1.[Ti+4],28.1 µM,66.9 µM,36.4 µM,27.3,25.7,28.1 µM,29.7 µM,33.5,14.7 µM,24.5,14.3 µM,14.3,13,14.3 µM,14.8,18.1,,,,
N#CC(C(=N/NC(N)=S)/C(=N\NC(N)=S)C(C#N)c1ccccc1)c1ccccc1 (stereo not given),> 10 µM,> 10 µM,> 10 µM,> 10,> 10,> 10 µM,> 10 µM,> 10,,,,,,,,,,,,
c1ccc2c(c1)[Se]c1ccccc1[Se]2,> 100 µM,> 100 µM,> 100 µM,> 100,> 100,64.9 µM,> 100 µM,> 100,,,,,,,,,,,,
NC(CCc1nc(-c2ccccc2)cs1)C(=O)O (stereo not given),> 100 µM,,> 100 µM,> 100,> 100,> 100 µM,> 100 µM,> 100,,,,,,,,,,,,
O=S(O)CCCCSSCCCCS(=O)(O)=S,> 100 µM,> 100 µM,> 100 µM,> 100,61.2,92.1 µM,> 100 µM,> 100,,,,,,,,,,,,
CCC1N2CCCCC2[C@@H]2c3[nH]c4ccccc4c3CCN12 (stereo not given in full),> 100 µM,> 100 µM,> 100 µM,,> 100,> 100 µM,> 100 µM,> 100,,,,,,,,,,,,
Cc1cc(Cl)ccc1N1C(=O)C(=O)C(c2nc3ccccc3s2)/C(=N\NC(=O)c2ccccc2O)C1=O (stereo not given),> 100 µM,> 100 µM,> 100 µM,> 100,> 100,> 100 µM,> 100 µM,> 100,,,,,,,,,,,,
CC(=O)C1C(=O)C(=O)N(c2ccc(Cl)cc2C)C1=O (stereo not given),> 100 µM,> 100 µM,> 100 µM,,> 100,,> 100 µM,> 100,,,,,,,,,,,,
CC(C)[C@H](COC(C)(C)C)N=CN1CSc2ccccc21,71.4 µM,> 100 µM,84.1 µM,93.2,> 100,77.1 µM,> 100 µM,,,,,,,,,,,,,
NC(N)=NS(=O)(=O)c1ccc(NC(=O)c2ccc(Cl)c3c(Nc4ccc(S(=O)(=O)N=C(N)N)cc4)c4ccccc4nc23)cc1,> 100 µM,> 100 µM,> 100 µM,> 100,> 100,98.5 µM,> 100 µM,> 100,,,,,,,,,,,,

# Reference: PubChem BioAssay (NCI)
